Assay results: the supplement of paper PMC10307832

What was measured:
Assay in all cases: relative viability (nuclei count vs DMSO), 5 days (fraction); higher = more cells survive
[1] = compound: C1/C(=C\C2=CC=CS2)/C(=O)/C(=C/C3=CC=CS3)/C1 + CS(=O)(=O)N1CCN(Cc2cc3nc(-c4cccc5[nH]ncc45)nc(N4CCOCC4)c3s2)CC1 [Pictilisib] (partner 1 µM)
In short: (§1)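 Medians of duplicate plates are given as relative viability. That measure is the nuclei count in treated wells divided by the count in vehicle wells. Counts were taken on 4× images of lung cancer cell lines in 1536-well plates, 5 days after pin-tool dosing the day after seeding with one drug alone or a fixed anchor-drug dose plus five library-drug doses (not always all listed) in √10 steps.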

[2] = compound: C1/C(=C\C2=CC=CS2)/C(=O)/C(=C/C3=CC=CS3)/C1 + Nc1ncn([C@H]2C[C@H](O)[C@@H](CO)O2)c(=O)n1 [Decitabine] (partner 2 µM)
In short: as §1

TPCA-1 + Pictilisib = compound: C1=CC(=CC=C1C2=CC(=C(S2)NC(=O)N)C(=O)N)F [TPCA-1] + CS(=O)(=O)N1CCN(Cc2cc3nc(-c4cccc5[nH]ncc45)nc(N4CCOCC4)c3s2)CC1 [Pictilisib] (partner 1 µM)
In short: as §1

[3] = compound: C[C@]12O[C@H](C[C@]1(O)CO)n1c3ccccc3c3c4c(c5c6ccccc6n2c5c31)CNC4=O [Lestaurtinib] + CS(=O)(=O)N1CCN(Cc2cc3nc(-c4cccc5[nH]ncc45)nc(N4CCOCC4)c3s2)CC1 [Pictilisib] (partner 1 µM)
In short: as §1

Cell Line | relative viability ([1]; first compound 0.2 µM) | relative viability ([1]; first compound 0.6325 µM) | relative viability ([1]; first compound 2 µM) | relative viability ([1]; first compound 6.325 µM) | relative viability ([1]; first compound 20 µM) | relative viability ([2]; first compound 0.2 µM) | relative viability ([2]; first compound 0.6325 µM) | relative viability ([2]; first compound 2 µM) | relative viability ([2]; first compound 6.325 µM) | relative viability ([2]; first compound 20 µM) | relative viability (TPCA-1 + Pictilisib; first compound 0.04 µM) | relative viability (TPCA-1 + Pictilisib; first compound 0.1265 µM) | relative viability (TPCA-1 + Pictilisib; first compound 0.4 µM) | relative viability (TPCA-1 + Pictilisib; first compound 1.265 µM) | relative viability (TPCA-1 + Pictilisib; first compound 4 µM) | relative viability ([3]; first compound 0.005 µM) | relative viability ([3]; first compound 0.01581 µM) | relative viability ([3]; first compound 0.05 µM) | relative viability ([3]; first compound 0.1581 µM) | relative viability ([3]; first compound 0.5 µM)
NCI-H460 | 0.365 | 0.279 | 0.453 | 0.303 | 0.346 | 0.454 | 0.548 | 0.481 | 0.473 | 0.449 | 0.421 | 0.246 | 0.332 | 0.339 | 0.216 | 0.315 | 0.392 | 0.298 | 0.224 | 0.201
LCLC-97TM1 | 0.209 | 0.28 | 0.198 | 0.235 | 0.159 | 0.25 | 0.241 | 0.219 | 0.173 | 0.19 | 0.183 | 0.157 | 0.199 | 0.151 | 0.111 | 0.197 | 0.163 | 0.138 | 0.139 | 0.125
COR-L23 | 0.765 | 0.827 | 0.922 | 0.674 | 0.892 | 0.427 | 0.411 | 0.488 | 0.472 | 0.417 | 0.964 | 0.671 | 0.829 | 0.716 | 0.438 | 0.688 | 0.723 | – | 0.332 | 0.208
NCI-H1355 | 0.519 | 0.401 | 0.411 | 0.391 | 0.474 | 0.369 | 0.388 | 0.319 | 0.304 | 0.325 | 0.487 | 0.325 | 0.427 | 0.227 | 0.224 | 0.412 | 0.363 | 0.314 | 0.389 | 0.273
NCI-H1666 | 0.587 | 0.281 | 0.408 | 0.273 | 0.309 | 0.697 | 0.732 | 0.751 | 0.636 | 0.736 | 0.419 | 0.35 | 0.412 | 0.561 | 0.404 | 0.46 | 0.486 | 0.39 | 0.358 | 0.388
EPLC-272H | 0.33 | 0.315 | 0.396 | 0.39 | 0.306 | 0.379 | 0.349 | 0.446 | 0.282 | 0.339 | 0.381 | 0.285 | 0.341 | 0.38 | 0.32 | 0.292 | 0.318 | 0.212 | 0.286 | 0.305
ChaGo-K-1 | 0.653 | 0.699 | 0.756 | 0.487 | 0.538 | 0.528 | 0.394 | 0.494 | 0.436 | 0.242 | 0.624 | 0.704 | 0.805 | 0.748 | 0.334 | 0.726 | 1.15 | 0.663 | 0.421 | 0.356
NCI-H1651 | 0.527 | 0.596 | 0.646 | – | 0.516 | 0.616 | 0.646 | 0.868 | 0.357 | 0.587 | 0.637 | 0.487 | 0.561 | 0.657 | 0.436 | 0.59 | 0.736 | 0.309 | 0.542 | 0.286
